Experimental data taken from patent US20090298055A1, “PRODUCTION OF PROTEINS” (Applied Research Systems ARS Holding S.A., priority 2004, published 2009).
“Also recorded” adds a separate entry of the source.

Legend:
Assay type in all cases: cell-based, Chinese hamster
[1] = system: CHO AA8 C4R0.15 and CHO AA8 C5R0.15 cells; assay: F-MTX staining and competition with antifolates (flow cytometry); settings: CHO AA8 C4R0.15 and C5R0.15 cells
Method: (§1) F-MTX staining and competition with hydrophilic and lipophilic antifolates—Cells were seeded in 60-mm Petri dish and incubated for 8 hours at 37° C. in growth medium containing 2 μM fluorescein-MTX (F-MTX). Cells were then washed with PBS and subjected to competition with MTX and its lipophilic analogue TMQ. Following 3 hours of incubation, cells were detached by trypsinization, suspended in PBS containing 1% fetal calf serum and the residual green fluorescence per cell was determined using a flow cytometer (FACSCalibur, Becton-Dickinson) at an excitation of 488 nm and emission of 525 nm. Autofluorescence of unstained cells was routinely recorded.

CHO-S cells [2] = assay: as above; settings: 2 μM F-MTX, 3 hours competition
Method: as §1

CHO AA8 cells [3] = assay: as above
Method: as §1

CHO-S R0.15 cells = assay: as above; settings: for concentration for complete displacement of F-MTX: 2 μM F-MTX, 3 hours competition
Method: as §1

[4] = system: CHO-S-R0.04 cells (selected in 40 nM MTX); assay: [3H]-MTX transport assay; settings: 2 μM [3H]-MTX, 3 minutes
Method: (§2) [^3H]-MTX transport—In order to determine the ability of the antifolate-resistant clones to take up antifolates the influx rates of [^3H]-MTX were measured and compared to the control CHO AA8 cells. Cells (2×10^7) from the mid-log phase of growth were washed three times in transport buffer consisting of HEPES-buffered saline solution (HBSS, Rothem et al., 2002) and incubated for 3 minutes at 37° C. in the presence of HBSS (1 ml suspensions) containing 2 μM [^3H]-MTX. Transport controls contained a 500-fold excess (1 mM) of unlabeled MTX. The transport of [^3H]-MTX was stopped by the addition of 10 ml of ice-cold HBSS. The cell suspension was then centrifuged for 5 minutes at 4° C. using a centrifugation speed of 500×g, following which the cell pellet was washed twice with 10 ml of ice-cold transport buffer. The final cell pellet was suspended in water and processed for scintillation counting.

[5] = system: CHO-S-R0.12 cells (selected in 120 nM MTX); assay: [3H]-MTX transport assay; settings: 2 μM [3H]-MTX, 3 minutes
Method: as §2

[6] = system: CHO AA8 C4 R0.15 and C5 R0.15 cell lines; assay: [3H]-MTX transport assay; settings: 2 μM [3H]-MTX, 3 minutes
Method: as §2

[7] = system: hRFC and hRFC-HA CHO AA8 C5R0.15 transfectants; assay: MTX growth inhibition assay
Method: (§3) Cell growth inhibition by antifolates—For antifolate cell growth inhibition, cells (10^4/well) were seeded in 24-well plates in the respective growth medium (AA8 and derivatives in RPMI+10% FCS, and CHO-S cells in CD-CHO) containing various concentrations of MTX or the lipophilic antifolates, trimeterxate (Dr. David Fry, Warner-Lambert, Parke-Davis, Detroit, Mich.) and incubated for 3 days at 37° C. Thereafter, cells were detached by trypsinization and the number of viable cells was determined using trypan blue exclusion. The 50% inhibitory concentration (IC50) is defined as the drug concentration at which cell growth is inhibited by 50% relative to untreated controls.
(§4) Cell growth assays and inhibition by antifolates—as described in Example 2, hereinabove.

[8] = system: parental CHO AA8 C5 cells (RFC deficient); assay: MTX growth inhibition assay; settings: Cricetulus griseus, 72 h, 3 days
Method: as §3, §4

CHO AA8 cells [9] = assay: Cell growth inhibition by lipophilic antifolates; settings: Cricetulus griseus; printed after 'CHO AA8 counterpart', data not shown
Method: as §3

[10] = system: MTX-resistant CHO AA8 C4R0.15 and C5R0.15 cells; assay: Cell growth inhibition by lipophilic antifolates; settings: data not shown
Method: as §3

CHO-S cells [11] = assay: Cell growth inhibition by antifolates (trypan blue exclusion, 3 days); settings: Cricetulus griseus, 72 h, read-out: 50% inhibition of cell growth (IC50)
Method: as §3

[12] = system: CHO-S R0.15 cells (RFC deficient); assay: as above
Method: as §3

Compound | concentration required to completely displace F-MTX fluorescence [1] | concentration at which cells completely lost their F-MTX staining (CHO-S cells [2]) | concentration resulting in complete loss of F-MTX fluorescence (CHO AA8 cells [3]) | concentration for complete displacement of F-MTX (CHO-S R0.15 cells) | loss of cellular F-MTX staining (CHO-S R0.15 cells; competition with 100 nM MTX) | loss of control CHO-S transport activity [4] | loss of control CHO-S transport activity [5] | loss of MTX uptake relative to control AA8 cells [6] | IC50 ([7]; Cricetulus griseus, CHO-AA8, 72 h, hRFC and hRFC-HA transfectants, 3 days) | increase in MTX sensitivity ([7]; RFC and RFC-HA transfectants vs C5R0.15 cells) | IC50 [8] | IC50 (CHO AA8 cells [9]) | hypersensitivity compared to CHO AA8 counterpart [10] | concentration resulting in complete loss of F-MTX fluorescence (CHO-S cells [2]) | IC50 (CHO-S cells [11]) | IC50 ([12]; Cricetulus griseus, 72 h, CHO-S R0.15 cells, read-out: 50% inhibition of cell growth (IC50)) | hypersensitivity of CHO-SR0.15 cells as compared with parental CHO cells ([12]; ratio of 50% inhibitory concentrations)
CN(Cc1cnc2nc(N)nc(N)c2n1)c1ccc(C(=O)N[C@@H](CCC(=O)O)C(=O)O)cc1 [MTX, methotrexate] | 3 µM | 100 nM | 30 nM | 1000 nM | did not result in any loss; also recorded: Retention of F-MTX fluorescence | 92.5% | 96.4% | 90-91% | 0.027 to 0.029 µM | 100 fold | ~3 µM |  |  |  |  |  | 
COc1ccc(OC)c(Cc2cnc3nc(N)nc(N)c3c2C)c1 [PTX, piritrexim] |  |  |  |  |  |  |  |  |  |  |  | ~0.008 µM | > 3 fold |  |  |  | 
COc1cc(NCc2ccc3nc(N)nc(N)c3c2C)cc(OC)c1OC [TMQ, Trimetrexate] |  |  |  | 10 nM |  |  |  |  |  |  |  | ~0.006 µM | > 5 fold | 10 nM | ~0.04 µM | 0.01 µM | 8 fold
